Results reported in PubChem BioAssay (NCI).
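1) Cells in 96-well plates. 2) Compound, 48 h, 5 concentrations. 3) Linear interpolation between surrounding doses. 4) Unreached endpoint = highest concentration. GI50 = concentration required for 50% inhibition of growth. TGI: total growth inhibition.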

How the values were obtained:
Assay in all cases: NCI tumour cell line growth inhibition, 48 h
[1] = tested on: MALME-3M melanoma
[2] = tested on: HOP-62 NSCLC
[3] = tested on: OVCAR-5 ovarian
[4] = tested on: M14 melanoma
[5] = tested on: U251 CNS
[6] = tested on: 786-0 renal
[7] = tested on: SN12C renal
[8] = tested on: SK-MEL-2 melanoma
[9] = tested on: MCF7 breast
[10] = tested on: IGROV1 ovarian
[11] = tested on: HCC-2998 colon
[12] = tested on: DU-145 prostate
[13] = tested on: CCRF-CEM leukemia
[14] = tested on: COLO 205 colon
[15] = tested on: EKVX NSCLC
[16] = tested on: SNB-19 CNS
[17] = tested on: SF-268 CNS
[18] = tested on: KM12 colon
[19] = tested on: HL-60(TB) leukemia
[20] = tested on: SNB-75 CNS
[21] = tested on: HT29 colon
[22] = tested on: ACHN renal
[23] = tested on: NCI-H522 lung
[24] = tested on: HCT-15 colon
[25] = tested on: MDA-MB-435
[26] = tested on: SK-OV-3 ovarian
[27] = tested on: BT-549 breast
[28] = tested on: SR leukemia
[29] = tested on: PC-3 prostate
[30] = tested on: SK-MEL-5 melanoma
[31] = tested on: MOLT-4 leukemia
[32] = tested on: T-47D breast
[33] = tested on: OVCAR-8 ovarian
[34] = tested on: UACC-257 melanoma
[35] = tested on: LOX IMVI melanoma
[36] = tested on: MDA-MB-231 breast
[37] = tested on: SF-539 CNS
[38] = tested on: OVCAR-4 ovarian
[39] = tested on: SF-295 CNS
[40] = tested on: A549 NSCLC
[41] = tested on: UACC-62 melanoma
[42] = tested on: K-562 leukemia
[43] = tested on: NCI-H23 lung
[44] = tested on: CAKI-1 renal
[45] = tested on: HCT-116 colon
[46] = tested on: NCI-H460 lung
[47] = tested on: OVCAR-3 ovarian
[48] = tested on: NCI/ADR-RES ovarian
[49] = tested on: RPMI-8226 leukemia
[50] = tested on: NCI-H226 lung
[51] = tested on: UO-31 renal
[52] = tested on: TK-10 renal

## COc1cc(C(=O)/C=C/c2c(-c3cccs3)nc3sccn23)cc(OC)c1OC
[1]
  GI50: 3.28 µM
  TGI: 43.4 µM
[2]
  GI50: 2.41 µM
  TGI: 6.44 µM
[3]
  GI50: 4.74 µM
  TGI: 27.8 µM
[4]
  GI50: 2.51 µM
  TGI: 27.2 µM
[5]
  GI50: 0.904 µM
  TGI: 5.34 µM
[6]
  GI50: 1.53 µM
  TGI: 5.94 µM
[7]
  GI50: 1.92 µM
  TGI: 10.8 µM
[8]
  GI50: 0.319 µM
  TGI: 1.28 µM
[9]
  GI50: 0.724 µM
  TGI: 88.4 µM
[10]
  GI50: 0.462 µM
  TGI: 1.37 µM
[11]
  GI50: 0.814 µM
  TGI: 2 µM
[12]
  GI50: 0.518 µM
  TGI: 1.89 µM
[13]
  GI50: 0.565 µM
  TGI: > 100 µM
[14]
  GI50: 1.65 µM
  TGI: 3.32 µM
[15]
  GI50: 2.41 µM
  TGI: > 100 µM
[16]
  GI50: 2.14 µM
  TGI: 13.5 µM
[17]
  GI50: 1.32 µM
  TGI: 6.3 µM
[18]
  GI50: 0.342 µM
  TGI: 1.09 µM
[19]
  GI50: 1.19 µM
  TGI: 4.46 µM
[20]
  GI50: 1.28 µM
  TGI: 8.16 µM
[21]
  GI50: 1.12 µM
  TGI: 3.96 µM
[22]
  GI50: 2.16 µM
  TGI: 7.52 µM
[23]
  GI50: 0.26 µM
  TGI: 0.866 µM
[24]
  GI50: 0.839 µM
  TGI: 3.85 µM
[25]
  GI50: 0.592 µM
  TGI: 60.1 µM
[26]
  GI50: 2.15 µM
  TGI: 6.15 µM
[27]
  GI50: 1.79 µM
  TGI: 11.4 µM
[28]
  GI50: 0.264 µM
  TGI: 2.47 µM
[29]
  GI50: 0.731 µM
  TGI: 6.17 µM
[30]
  GI50: 1.06 µM
  TGI: 2.49 µM
[31]
  GI50: 1.02 µM
  TGI: 4.45 µM
[32]
  GI50: 0.789 µM
  TGI: 4.71 µM
[33]
  GI50: 0.651 µM
  TGI: 3.7 µM
[34]
  GI50: 1.14 µM
  TGI: 3.71 µM
[35]
  GI50: 1.06 µM
  TGI: 2.5 µM
[36]
  GI50: 1.55 µM
  TGI: 9.27 µM
[37]
  GI50: 1.74 µM
  TGI: 4.26 µM
[38]
  GI50: 1.97 µM
  TGI: 53.2 µM
[39]
  GI50: 0.955 µM
  TGI: 9.94 µM
[40]
  GI50: 1.58 µM
  TGI: 5.3 µM
[41]
  GI50: 1.38 µM
  TGI: 3.72 µM
[42]
  GI50: 0.445 µM
  TGI: > 100 µM
[43]
  GI50: 0.814 µM
  TGI: 6.42 µM
[44]
  GI50: 1.79 µM
  TGI: 17 µM
[45]
  GI50: 1.09 µM
  TGI: 3.99 µM
[46]
  GI50: 0.6 µM
  TGI: 1.99 µM
[47]
  GI50: 1.01 µM
  TGI: 2.73 µM
[48]
  GI50: 0.464 µM
  TGI: 4.06 µM
[49]
  GI50: 0.448 µM
  TGI: 3.68 µM
[50]
  GI50: 2.46 µM
  TGI: 7.46 µM
[51]
  GI50: 0.784 µM
  TGI: 4.7 µM
[52]
  GI50: 2.08 µM
  TGI: > 100 µM
